Results: US4108857A, “Imidazolylmethyl methanobenzazocines” (Sterling Drug Inc., priority 1977, dated 1978)
Values after ≈ are worked out from the molar mass of the structure shown. Read-outs that look alike come from different tables or passages of the source.

Assays:
mice [1] = test: inclined screen test in mice (skeletal muscle relaxation); format: in vivo; settings: Mus musculus
[2] = precipitation on gradual pH adjustment of the aqueous solution; format: physicochemical; settings: 1 percent solution, N/10 sodium hydroxide solution, pH 7.0
mice [3] = test: diuresis in mice; format: in vivo; settings: 12.5 mg./kg. and 25 mg./kg. i.p.
[4] = system: minimal pentylenetetrazol seizures; test: anticonvulsant test against minimal pentylenetetrazol seizures; format: in vivo, mice; settings: Mus musculus, oral, pentylenetetrazol 32.5 mg./kg. intravenously
Description: In anticonvulsant studies, against minimal pentylenetetrazol seizures, wherein the dose of pentylenetetrazol was only 32.5 mg./kg. (intravenously) and the ensuing convulsions were clonic, without a tonic hind leg extensor component, the oral ED50 values were: 30 minutes post-medication, 15 ± 4 mg./kg.; 90 minutes post-medication, 37 ± 6 mg./kg.

humans = test: analgesic use in humans; format: in vivo
Description: For example, administered orally, the effective dosage of the racemic cis form of this compound in humans has been determined to be about 0.1 to 0.5 mg. of drug per kg. of body weight per day, at 5-25 mg. per dose; preferably about 0.2 to 0.4 mg./kg./day, for instance a total of […] at 20 mg./dose.

[5] = system: maximal pentylenetetrazol seizures; test: anti-maximal pentylenetetrazol seizure test in mice; format: in vivo; settings: Mus musculus
acute toxicity, rat = settings: in vivo; for LD50 at 168 h: 7 day
Description: (§1) In a toxicology study, monkeys were medicated orally with 5 mg./kg. and 25 mg./kg. of the product of Example 1A each day for 5 days. […] There was considerable variability among the monkeys in the magnitude of the response. Symptoms lasted 2 to 5 hours. […] Blood SGO-T, alkaline phosphatase, and BUN were all normal.

acute toxicity, mouse = settings: in vivo; for LD50 at 168 h: 7 day
Description: as §1

monkeys = test: toxicology study in monkeys (oral, daily for 5 days); format: in vivo
Description: as §1

[6] = solubility in water or aqueous acid; settings: dilute hydrochloric acid
[7] = precipitation on diluting ethyl alcohol solution with four volumes of water; format: physicochemical; settings: 5 percent (w/v) solution in 95 percent ethyl alcohol
[8] = system: maximal electroshock seizures; test: anti-maximal electroshock seizure test in mice; format: in vivo; settings: for ED50: Mus musculus
Description: The preferred species of this invention, i.e. the compounds having in free base form Formula II, are useful as analgesic agents administered orally or parenterally to humans. […] In the anti-maximal electroshock seizure test, the compounds were administered intraperitoneally or perorally 30 or 90 minutes prior to the application of 50 milliamperes of alternating current through corneal electrodes. Shock duration was 0.3 second. The criterion for anticonvulsant activity was the absence of the tonic hind leg extensor component of the seizure. In the anti-maximal pentylenetetrazol seizure test, the compounds were given intraperitoneally 30 or 90 minutes prior to the rapid intravenous injection of 50 mg. per kg. of pentylenetetrazol. Failure to display tonic hind leg extensor seizures was again the criterion for drug action. Representative results, expressed as ED50 (mg./kg.), which were obtained with my new compounds in these two tests are as follows: […]

pH of solution = format: physicochemical; settings: hydrochloride; 0.42 ml. of N/2 hydrochloric acid and 0.58 ml. of water
mice [9] = test: psychomotor activity studies in mice; format: in vivo
[10] = iv, I.V., read-out: LD50 ± s.e.
[11] = 5 mg./kg. orally each day for 5 days

In the case of `C[C@H]1[C@H]2Cc3ccccc3[C@]1(C)CCN2CC1CC1` (relative stereo) [Example 1A, racemic 1,2,3,4,5,6-hexahydro-3-cyclopropylmethyl-cis-6,11-dimethyl-2,6-methano-3-benzazocine], the ED50 (mice [1]; 1 h, oral, sixty minutes after medication, read-out: dose at which 50 percent of the mice had fallen from a 60° inclined screen) is reported as 38.2 ± 11 mg/kg, the ED50 (mice [1]; ip, intraperitoneal, read-out: ED50, 60° inclined screen) is reported as 17.2 mg/kg and the “precipitation on adjusting to pH 7.0” value [2] is reported as “no precipitate formed”. For the same compound, the diuresis (mice [3]) was “significant diuresis”, the urine produced (mice [3]) was “dilute urine without electrolyte concentration” and the ED50 ([4]; 0.5 h, 30 minutes post-medication) was 15 ± 4 mg/kg. The ED50 ([4]; 1.5 h, 90 minutes post-medication) was 37 ± 6 mg/kg, the “psychotomimetic effects in humans” value (humans; analgesically effective doses) was “very few, if any, psychotomimetic effects” and the “central nervous system effects in humans” value (humans; effective therapeutic analgesic doses) was “only minimal central nervous system effects”. For the same compound, the “analgesic activity in humans” value (humans; humans) was “strong analgesic”, the ED50 ([5]; 0.5 h, IP, 30') was 2.3 ± 7 mg/kg and the ED50 ([5]; 0.5 h, PO, 30') was 3.3 ± 0.8 mg/kg. It also gave an ED50 ([5]; 1.5 h, IP, 90') of 5.3 ± 10 mg/kg, an ED50 ([5]; 1.5 h, PO, 90') of 6.2 ± 1 mg/kg and an LD50 at 24 h (acute toxicity, rat; [10]) of 17 ± 1 mg/kg. The LD50 at 168 h (acute toxicity, rat; [10]) was 17 ± 1 mg/kg, the LD50 at 24 h (acute toxicity, rat; po, P.O., read-out: ALD50) was 200 mg/kg and the LD50 at 168 h (acute toxicity, rat; po, P.O., read-out: ALD50) was 200 mg/kg. For the same compound, the LD50 at 24 h (acute toxicity, mouse; ip, I.P.) was 65 ± 7 mg/kg, the LD50 at 168 h (acute toxicity, mouse; ip, I.P.) was 65 ± 7 mg/kg and the LD50 at 24 h (acute toxicity, mouse; iv, I.V.) was 20 ± 1 mg/kg. The LD50 at 168 h (acute toxicity, mouse; iv, I.V.) was 20 ± 1 mg/kg, the LD50 at 24 h (acute toxicity, mouse; po, P.O.) was 155 ± 17 mg/kg and the LD50 at 168 h (acute toxicity, mouse; po, P.O.) was 155 ± 17 mg/kg. For the same compound, the symptoms (monkeys; [11]) was “Some ataxia with a decrease in activity”, the tolerability (monkeys; [11]) was “well tolerated” and the symptoms (monkeys; 25 mg./kg. orally each day for 5 days) was “more marked decrease in spontaneous activity along with ataxia and salivation”. For the same compound, the BUN (monkeys; oral) was “normal”, the “Blood SGO-T” value (monkeys; oral) was “normal” and the alkaline phosphatase (monkeys; oral) was “normal”. For the same compound, the body weight (monkeys; oral) was “Some weight loss occurred”, the solubility [6] was 10000 µg/mL (≈ 39.2 mM) and the “precipitation on dilution with four volumes of water” value [7] was “a precipitate formed”. The “Anti-Maximal Electroshock ED50” value ([8]; IP, 90') was “INACT”, the ED50 ([8]; 0.5 h, IP, 30') was 11.2 ± 2 mg/kg and the ED50 ([8]; 0.5 h, PO, 30') was 26.2 ± 7 mg/kg. For the same compound, the ED50 ([8]; 1.5 h, PO, 90') was 35.5 ± 3 mg/kg, the “pH of 1 percent solution in dilute hydrochloric acid” value (pH of solution) was 1.5 and the “toxic signs at high dose” value (mice [9]; 128 mg./kg. p.o.) was “Ataxia, loss of righting reflex, and death occurred”. For the same compound, the psychomotor activity pattern (mice [9]; 8-128 mg./kg. p.o.) was “stimulation at lower doses and depression at high doses”.
